Active and inactive are the calls of the source.
What was measured:
[1] = target: Proto-oncogene tyrosine-protein kinase receptor Ret (Homo sapiens, UniProt P07949)
[2] = target: Membrane-associated progesterone receptor component 1 (Homo sapiens, UniProt O00264)
[3] = target: Serine/threonine-protein kinase pim-2 (Homo sapiens, UniProt Q9P1W9)
[4] = target: Dual specificity protein kinase CLK4 (Homo sapiens, UniProt Q9HAZ1)
[5] = target: Cell division cycle 7-related protein kinase (Homo sapiens, UniProt O00311)
Chain of Cell division cycle 7-related protein kinase (O00311 whole entry): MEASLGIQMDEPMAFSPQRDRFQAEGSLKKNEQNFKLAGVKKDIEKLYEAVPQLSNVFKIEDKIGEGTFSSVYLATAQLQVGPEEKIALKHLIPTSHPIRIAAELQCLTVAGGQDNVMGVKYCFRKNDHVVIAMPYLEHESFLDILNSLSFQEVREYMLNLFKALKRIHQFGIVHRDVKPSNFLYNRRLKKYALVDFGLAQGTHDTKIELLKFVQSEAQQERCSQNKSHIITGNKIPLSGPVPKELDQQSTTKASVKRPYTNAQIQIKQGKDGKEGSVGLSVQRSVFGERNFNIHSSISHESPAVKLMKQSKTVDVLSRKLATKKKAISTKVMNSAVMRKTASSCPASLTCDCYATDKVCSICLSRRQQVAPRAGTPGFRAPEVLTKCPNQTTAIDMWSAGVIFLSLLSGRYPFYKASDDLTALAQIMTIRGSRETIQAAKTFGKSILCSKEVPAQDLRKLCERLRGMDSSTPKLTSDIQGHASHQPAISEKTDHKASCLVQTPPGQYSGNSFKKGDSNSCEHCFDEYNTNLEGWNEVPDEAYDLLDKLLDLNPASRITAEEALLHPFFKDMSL

[6] = target: High affinity nerve growth factor receptor (Homo sapiens, UniProt P04629)
[7] = target: T1, ATP-dependent RNA helicase DHX30 (Homo sapiens, UniProt Q7L2E3)
T1 sequence (Q7L2E3 whole entry): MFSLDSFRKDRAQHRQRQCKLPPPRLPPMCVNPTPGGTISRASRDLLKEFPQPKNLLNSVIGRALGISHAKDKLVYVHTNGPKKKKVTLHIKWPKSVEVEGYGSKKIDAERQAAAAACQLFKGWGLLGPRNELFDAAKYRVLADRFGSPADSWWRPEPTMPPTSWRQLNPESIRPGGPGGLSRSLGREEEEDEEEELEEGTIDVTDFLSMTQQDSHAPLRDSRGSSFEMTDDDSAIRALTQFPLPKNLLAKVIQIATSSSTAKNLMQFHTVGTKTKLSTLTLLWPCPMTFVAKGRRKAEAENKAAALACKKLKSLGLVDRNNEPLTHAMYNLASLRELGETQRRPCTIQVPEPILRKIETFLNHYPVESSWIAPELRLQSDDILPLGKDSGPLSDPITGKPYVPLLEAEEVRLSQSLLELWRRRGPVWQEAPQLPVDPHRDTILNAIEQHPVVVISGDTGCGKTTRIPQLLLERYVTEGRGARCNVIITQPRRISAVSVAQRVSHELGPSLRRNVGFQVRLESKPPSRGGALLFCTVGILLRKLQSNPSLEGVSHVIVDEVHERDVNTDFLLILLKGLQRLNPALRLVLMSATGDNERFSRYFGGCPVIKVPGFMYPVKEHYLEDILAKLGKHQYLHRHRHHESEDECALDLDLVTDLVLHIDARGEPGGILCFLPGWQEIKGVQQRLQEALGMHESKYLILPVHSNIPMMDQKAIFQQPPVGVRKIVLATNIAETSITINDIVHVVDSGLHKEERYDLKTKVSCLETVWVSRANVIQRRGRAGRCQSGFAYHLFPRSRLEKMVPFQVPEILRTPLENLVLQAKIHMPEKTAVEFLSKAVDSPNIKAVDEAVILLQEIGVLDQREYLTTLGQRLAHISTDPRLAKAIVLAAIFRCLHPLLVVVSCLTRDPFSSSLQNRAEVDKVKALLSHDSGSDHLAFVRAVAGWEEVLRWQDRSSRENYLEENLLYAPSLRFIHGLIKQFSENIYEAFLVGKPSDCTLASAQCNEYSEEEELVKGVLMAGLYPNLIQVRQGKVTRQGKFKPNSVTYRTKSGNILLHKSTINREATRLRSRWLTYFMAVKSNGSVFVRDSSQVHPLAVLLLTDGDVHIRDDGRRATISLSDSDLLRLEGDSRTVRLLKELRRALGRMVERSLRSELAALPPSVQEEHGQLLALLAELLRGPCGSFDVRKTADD

[8] = target: Serine/threonine-protein kinase ATR (Homo sapiens, UniProt Q13535)
Chain of Serine/threonine-protein kinase ATR (Q13535 whole entry): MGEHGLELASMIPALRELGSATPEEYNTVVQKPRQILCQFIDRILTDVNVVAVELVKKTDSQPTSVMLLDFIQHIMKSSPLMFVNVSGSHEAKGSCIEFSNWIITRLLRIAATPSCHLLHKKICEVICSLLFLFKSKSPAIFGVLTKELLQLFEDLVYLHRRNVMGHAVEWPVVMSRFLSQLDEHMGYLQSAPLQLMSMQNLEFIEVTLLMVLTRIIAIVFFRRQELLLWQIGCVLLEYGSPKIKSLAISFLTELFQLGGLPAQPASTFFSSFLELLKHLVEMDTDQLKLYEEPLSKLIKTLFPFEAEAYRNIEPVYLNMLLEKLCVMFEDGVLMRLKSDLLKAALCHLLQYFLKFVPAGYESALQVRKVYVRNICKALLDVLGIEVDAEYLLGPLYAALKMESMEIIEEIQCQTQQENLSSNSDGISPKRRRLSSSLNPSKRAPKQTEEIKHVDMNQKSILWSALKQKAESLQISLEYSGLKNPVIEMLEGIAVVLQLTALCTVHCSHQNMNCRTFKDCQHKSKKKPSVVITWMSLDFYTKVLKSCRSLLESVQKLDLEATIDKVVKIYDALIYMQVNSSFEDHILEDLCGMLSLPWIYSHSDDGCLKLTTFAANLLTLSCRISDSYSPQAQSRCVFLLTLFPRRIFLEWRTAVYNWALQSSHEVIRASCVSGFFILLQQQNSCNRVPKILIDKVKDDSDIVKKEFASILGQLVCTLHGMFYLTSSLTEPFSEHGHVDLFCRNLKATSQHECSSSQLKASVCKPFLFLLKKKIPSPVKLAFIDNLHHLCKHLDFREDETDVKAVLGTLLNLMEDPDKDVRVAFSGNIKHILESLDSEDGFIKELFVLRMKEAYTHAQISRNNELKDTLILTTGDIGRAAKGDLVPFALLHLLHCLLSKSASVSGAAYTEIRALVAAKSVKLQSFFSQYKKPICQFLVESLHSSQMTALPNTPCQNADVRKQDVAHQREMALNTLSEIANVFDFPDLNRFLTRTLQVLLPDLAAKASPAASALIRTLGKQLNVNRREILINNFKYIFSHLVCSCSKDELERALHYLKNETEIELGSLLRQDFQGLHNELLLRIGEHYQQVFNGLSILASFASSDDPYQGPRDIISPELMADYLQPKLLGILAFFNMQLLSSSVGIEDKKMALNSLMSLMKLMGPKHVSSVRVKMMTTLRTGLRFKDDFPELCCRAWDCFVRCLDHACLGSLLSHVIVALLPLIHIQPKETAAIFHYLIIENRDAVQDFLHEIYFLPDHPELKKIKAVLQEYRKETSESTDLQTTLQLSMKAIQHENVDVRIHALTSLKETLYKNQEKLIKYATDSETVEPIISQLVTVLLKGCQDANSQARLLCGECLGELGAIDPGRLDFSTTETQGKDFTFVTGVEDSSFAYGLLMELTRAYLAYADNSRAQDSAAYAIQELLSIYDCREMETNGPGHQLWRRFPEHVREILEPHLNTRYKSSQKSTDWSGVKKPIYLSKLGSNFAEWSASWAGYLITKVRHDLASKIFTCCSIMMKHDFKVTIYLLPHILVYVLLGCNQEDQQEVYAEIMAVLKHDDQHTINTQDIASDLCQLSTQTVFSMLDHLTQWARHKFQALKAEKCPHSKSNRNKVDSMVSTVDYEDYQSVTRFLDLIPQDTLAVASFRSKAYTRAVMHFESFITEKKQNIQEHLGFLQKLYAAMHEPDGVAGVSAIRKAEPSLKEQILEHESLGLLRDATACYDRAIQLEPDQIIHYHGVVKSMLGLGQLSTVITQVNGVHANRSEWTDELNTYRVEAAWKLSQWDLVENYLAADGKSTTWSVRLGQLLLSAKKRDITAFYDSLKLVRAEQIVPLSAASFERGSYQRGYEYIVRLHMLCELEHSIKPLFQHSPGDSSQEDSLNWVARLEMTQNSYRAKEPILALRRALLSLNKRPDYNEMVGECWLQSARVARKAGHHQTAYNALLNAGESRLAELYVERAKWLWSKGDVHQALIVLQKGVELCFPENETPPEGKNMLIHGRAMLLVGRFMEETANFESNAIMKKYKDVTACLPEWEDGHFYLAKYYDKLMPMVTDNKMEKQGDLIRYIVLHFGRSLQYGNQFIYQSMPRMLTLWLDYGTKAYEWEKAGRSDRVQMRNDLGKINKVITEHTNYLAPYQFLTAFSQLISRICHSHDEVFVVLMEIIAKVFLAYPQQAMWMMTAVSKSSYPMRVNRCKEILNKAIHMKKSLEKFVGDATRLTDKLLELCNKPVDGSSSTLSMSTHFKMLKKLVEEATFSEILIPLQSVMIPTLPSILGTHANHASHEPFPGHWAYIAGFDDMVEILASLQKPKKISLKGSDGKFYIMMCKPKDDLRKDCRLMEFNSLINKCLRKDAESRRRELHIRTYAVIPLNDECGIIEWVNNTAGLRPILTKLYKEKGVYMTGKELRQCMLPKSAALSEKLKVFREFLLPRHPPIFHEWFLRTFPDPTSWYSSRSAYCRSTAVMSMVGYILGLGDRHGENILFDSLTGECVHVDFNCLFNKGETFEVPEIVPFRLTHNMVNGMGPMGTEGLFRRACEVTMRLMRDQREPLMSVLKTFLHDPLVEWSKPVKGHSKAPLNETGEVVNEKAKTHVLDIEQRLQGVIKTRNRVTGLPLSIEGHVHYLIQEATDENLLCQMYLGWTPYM

[9] = target: Rho-associated protein kinase 1 (Homo sapiens, UniProt Q13464)
[10] = target: T2, Isoleucine--tRNA ligase, mitochondrial (Homo sapiens, UniProt Q9NSE4)
T2 sequence (Q9NSE4 whole entry): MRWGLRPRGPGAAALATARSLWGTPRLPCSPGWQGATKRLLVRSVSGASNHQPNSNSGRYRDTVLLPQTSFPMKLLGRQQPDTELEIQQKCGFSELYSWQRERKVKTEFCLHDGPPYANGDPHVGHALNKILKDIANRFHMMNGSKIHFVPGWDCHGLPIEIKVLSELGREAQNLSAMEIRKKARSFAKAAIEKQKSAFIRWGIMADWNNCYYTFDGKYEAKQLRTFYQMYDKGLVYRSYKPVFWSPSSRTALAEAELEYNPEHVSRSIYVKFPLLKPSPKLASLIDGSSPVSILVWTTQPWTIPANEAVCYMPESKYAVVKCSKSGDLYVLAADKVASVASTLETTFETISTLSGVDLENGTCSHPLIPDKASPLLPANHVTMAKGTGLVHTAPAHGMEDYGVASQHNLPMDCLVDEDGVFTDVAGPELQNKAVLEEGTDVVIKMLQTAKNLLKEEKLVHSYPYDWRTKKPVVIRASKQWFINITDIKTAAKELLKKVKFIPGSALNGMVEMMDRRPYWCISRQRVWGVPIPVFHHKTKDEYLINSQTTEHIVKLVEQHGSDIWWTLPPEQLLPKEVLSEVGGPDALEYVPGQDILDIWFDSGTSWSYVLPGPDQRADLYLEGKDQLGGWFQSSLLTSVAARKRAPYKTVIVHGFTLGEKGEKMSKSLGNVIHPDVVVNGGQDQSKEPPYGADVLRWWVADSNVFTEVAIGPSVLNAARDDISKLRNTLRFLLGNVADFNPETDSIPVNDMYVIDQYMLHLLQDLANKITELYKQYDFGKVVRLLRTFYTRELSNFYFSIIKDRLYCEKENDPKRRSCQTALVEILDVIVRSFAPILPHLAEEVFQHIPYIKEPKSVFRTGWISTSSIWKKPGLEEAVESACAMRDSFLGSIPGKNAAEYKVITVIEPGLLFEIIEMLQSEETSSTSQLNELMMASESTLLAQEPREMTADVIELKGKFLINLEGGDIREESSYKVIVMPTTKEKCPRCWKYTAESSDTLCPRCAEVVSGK

[11] = target: Serine/threonine-protein kinase 24 (Homo sapiens, UniProt Q9Y6E0)
[12] = target: Serine/threonine-protein kinase Nek7 (Homo sapiens, UniProt Q8TDX7)
UMP-CMP kinase = target: T3, UMP-CMP kinase (Homo sapiens, UniProt P30085)
T3 sequence (P30085 whole entry): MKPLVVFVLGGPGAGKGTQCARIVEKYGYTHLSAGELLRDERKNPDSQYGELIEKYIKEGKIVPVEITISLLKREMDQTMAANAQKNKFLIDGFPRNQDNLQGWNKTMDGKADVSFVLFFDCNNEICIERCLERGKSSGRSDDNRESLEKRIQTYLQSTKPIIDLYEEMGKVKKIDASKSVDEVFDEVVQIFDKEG
Also: in the data inactive means no Kd found up to 30 µM.

Chain of Dual specificity protein kinase CLK4 (Q9HAZ1 whole entry): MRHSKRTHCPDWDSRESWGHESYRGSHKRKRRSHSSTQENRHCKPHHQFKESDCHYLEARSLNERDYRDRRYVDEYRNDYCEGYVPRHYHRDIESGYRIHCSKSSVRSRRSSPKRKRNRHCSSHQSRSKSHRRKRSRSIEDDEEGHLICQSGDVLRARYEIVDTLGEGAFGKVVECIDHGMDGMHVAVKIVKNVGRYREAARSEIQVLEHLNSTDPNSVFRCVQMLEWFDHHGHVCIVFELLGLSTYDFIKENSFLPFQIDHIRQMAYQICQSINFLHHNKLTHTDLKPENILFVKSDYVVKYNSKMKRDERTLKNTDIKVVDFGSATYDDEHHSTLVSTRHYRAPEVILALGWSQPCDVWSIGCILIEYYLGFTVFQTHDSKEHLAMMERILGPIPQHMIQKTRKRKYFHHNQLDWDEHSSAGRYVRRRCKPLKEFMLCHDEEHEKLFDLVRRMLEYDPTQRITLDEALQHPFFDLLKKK
Chain of Proto-oncogene tyrosine-protein kinase receptor Ret (P07949 whole entry): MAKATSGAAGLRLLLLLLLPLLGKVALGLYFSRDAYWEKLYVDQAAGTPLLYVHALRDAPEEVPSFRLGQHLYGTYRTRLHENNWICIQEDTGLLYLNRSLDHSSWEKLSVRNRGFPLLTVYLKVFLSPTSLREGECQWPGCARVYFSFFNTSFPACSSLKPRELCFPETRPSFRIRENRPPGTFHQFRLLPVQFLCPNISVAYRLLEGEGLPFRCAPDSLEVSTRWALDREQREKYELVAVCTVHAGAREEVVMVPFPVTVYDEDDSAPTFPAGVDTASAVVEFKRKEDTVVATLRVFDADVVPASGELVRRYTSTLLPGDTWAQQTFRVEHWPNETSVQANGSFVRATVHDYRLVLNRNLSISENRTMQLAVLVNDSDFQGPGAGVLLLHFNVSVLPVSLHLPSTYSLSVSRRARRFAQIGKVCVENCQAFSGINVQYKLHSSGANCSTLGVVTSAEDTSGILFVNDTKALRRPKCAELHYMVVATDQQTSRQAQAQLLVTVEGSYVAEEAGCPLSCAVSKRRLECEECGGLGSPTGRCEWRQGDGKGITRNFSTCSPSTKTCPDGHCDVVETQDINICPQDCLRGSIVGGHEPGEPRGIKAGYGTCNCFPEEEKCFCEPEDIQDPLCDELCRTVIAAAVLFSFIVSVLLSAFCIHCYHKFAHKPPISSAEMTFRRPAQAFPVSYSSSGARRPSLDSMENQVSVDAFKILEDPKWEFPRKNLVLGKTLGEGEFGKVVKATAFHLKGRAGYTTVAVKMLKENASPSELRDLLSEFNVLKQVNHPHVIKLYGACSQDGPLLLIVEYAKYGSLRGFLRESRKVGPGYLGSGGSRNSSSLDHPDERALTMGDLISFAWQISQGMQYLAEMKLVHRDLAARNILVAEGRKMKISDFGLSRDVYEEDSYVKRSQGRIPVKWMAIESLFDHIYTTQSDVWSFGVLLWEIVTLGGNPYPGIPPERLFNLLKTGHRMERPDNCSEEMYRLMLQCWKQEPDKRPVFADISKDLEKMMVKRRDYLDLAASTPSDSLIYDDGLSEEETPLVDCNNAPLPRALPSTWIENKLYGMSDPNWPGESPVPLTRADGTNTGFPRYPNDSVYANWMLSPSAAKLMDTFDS
Chain of Serine/threonine-protein kinase pim-2 (Q9P1W9 whole entry): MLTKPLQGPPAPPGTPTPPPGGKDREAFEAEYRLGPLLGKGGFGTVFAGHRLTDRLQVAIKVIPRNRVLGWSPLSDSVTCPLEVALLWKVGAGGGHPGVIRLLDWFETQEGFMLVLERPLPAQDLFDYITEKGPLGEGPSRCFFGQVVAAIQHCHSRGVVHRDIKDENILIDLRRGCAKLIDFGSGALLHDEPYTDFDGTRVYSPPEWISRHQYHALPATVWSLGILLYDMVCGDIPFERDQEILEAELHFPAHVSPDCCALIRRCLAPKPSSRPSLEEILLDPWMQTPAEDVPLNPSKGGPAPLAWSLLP

SMILES | Kd [1] | Kd [2] | Kd [3] | Kd [4] | Kd [5] | Kd [6] | Kd [7] | Kd [8] | Kd [9] | Kd [10] | Kd [11] | Kd [12] | Kd (UMP-CMP kinase)
O=C(NOC[C@H](O)CO)c1ccc(F)c(F)c1Nc1ccc(I)cc1F [MIRDAMETINIB] | > 30 µM (inactive) | > 30 µM (inactive) | > 30 µM (inactive) | > 30 µM (inactive) |  | > 30 µM (inactive) | > 30 µM (inactive) |  | > 30 µM (inactive) |  | > 30 µM (inactive) | > 30 µM (inactive) | 
FC(F)(F)c1ccc(CNc2ccc(Cc3c[nH]c4ncc(Cl)cc34)cn2)cn1 [PEXIDARTINIB] | > 30 µM (inactive) | > 30 µM (inactive) | > 30 µM (inactive) | > 30 µM (inactive) | > 30 µM (inactive) | > 30 µM (inactive) | > 30 µM (inactive) |  | > 30 µM (inactive) |  | > 30 µM (inactive) |  | 
C=CC(=O)Nc1cccc(Nc2nc(Nc3ccc(N4CCN(C(C)=O)CC4)cc3OC)ncc2C(F)(F)F)c1 [ROCILETINIB] | > 30 µM (inactive) |  | > 30 µM (inactive) | > 30 µM (inactive) |  | > 30 µM (inactive) |  | > 30 µM (inactive) | > 30 µM (inactive) | > 30 µM (inactive) |  |  | 
C[C@@H]1COC(Nc2ccc3ncnc(Nc4ccc(OCc5nccs5)c(Cl)c4)c3c2)=N1 [VARLITINIB] | > 30 µM (inactive) | > 30 µM (inactive) | > 30 µM (inactive) | > 30 µM (inactive) | > 30 µM (inactive) | > 30 µM (inactive) | > 30 µM (inactive) | > 30 µM (inactive) | > 30 µM (inactive) |  | > 30 µM (inactive) | > 30 µM (inactive) | 
CCc1cc2c(cc1N1CCC(N3CCOCC3)CC1)C(C)(C)c1[nH]c3cc(C#N)ccc3c1C2=O [ALECTINIB] |  |  | > 30 µM (inactive) | > 30 µM (inactive) | > 30 µM (inactive) | > 30 µM (inactive) | > 30 µM (inactive) | > 30 µM (inactive) | > 30 µM (inactive) |  |  |  | > 30 µM (inactive)
C=CCn1c(=O)c2cnc(Nc3ccc(N4CCN(C)CC4)cc3)nc2n1-c1cccc(C(C)(C)O)n1 [ADAVOSERTIB] |  | > 30 µM (inactive) | > 30 µM (inactive) |  | > 30 µM (inactive) |  | > 30 µM (inactive) | > 30 µM (inactive) |  | > 30 µM (inactive) |  |  | > 30 µM (inactive)
COCCN1CCN(Cc2ccc(-c3n[nH]c4c3C(=O)c3c(NC(=O)NN5CCOCC5)cccc3-4)cc2)CC1 [RGB-286638] | > 30 µM (inactive) | > 30 µM (inactive) | 0.042 µM (active) | 0.002 µM | > 30 µM (inactive) | > 30 µM (inactive) | > 30 µM (inactive) | > 30 µM (inactive) | > 30 µM (inactive) | > 30 µM (inactive) |  |  | > 30 µM (inactive)
O[C@H]1CC[C@H](Nc2ncc3nc(Nc4c(F)cc(F)cc4F)n([C@H]4CCOC4)c3n2)CC1 [TANZISERTIB] |  |  | > 30 µM (inactive) | > 30 µM (inactive) |  | > 30 µM (inactive) | > 30 µM (inactive) | > 30 µM (inactive) | > 30 µM (inactive) | > 30 µM (inactive) | > 30 µM (inactive) | > 30 µM (inactive) | 
Cc1ccc(C(=O)Nc2ccc(Oc3cc4cnn(C)c4cc3-c3cn[nH]c3)c(F)c2)c(=O)n1-c1ccc(F)cc1 [MERESTINIB] | 1.38 µM (active) | > 30 µM (inactive) | > 30 µM (inactive) | > 30 µM (inactive) | > 30 µM (inactive) | 1.03 µM | > 30 µM (inactive) | > 30 µM (inactive) | > 30 µM (inactive) | > 30 µM (inactive) | > 30 µM (inactive) |  | > 30 µM (inactive)
Cc1cc(-c2cc(OC(=O)c3ccccc3)ccc2Cl)cc2nnc(Nc3ccc(OCCN4CCCC4)cc3)nc12 [TG100-801] | 1.03 µM (active) |  | > 30 µM (inactive) |  |  | > 30 µM (inactive) | > 30 µM (inactive) | > 30 µM (inactive) | > 30 µM (inactive) |  |  | > 30 µM (inactive) | 
CN1CCN(c2nc(C3=C(c4c[nH]c5ccccc45)C(=O)NC3=O)c3ccccc3n2)CC1 [SOTRASTAURIN] | > 30 µM (inactive) |  | > 30 µM (inactive) | > 30 µM (inactive) | > 30 µM (inactive) | > 30 µM (inactive) |  | > 30 µM (inactive) | > 30 µM (inactive) | > 30 µM (inactive) | > 30 µM (inactive) |  | 

The remaining lines, values ahead:

Kd [1] | Kd [2] | Kd [3] | Kd [4] | Kd [5] | Kd [6] | Kd [7] | Kd [8] | Kd [9] | Kd [10] | Kd [11] | Kd [12] | Kd (UMP-CMP kinase) | SMILES
0.388 µM (active) | > 30 µM (inactive) | > 30 µM (inactive) | > 30 µM (inactive) | > 30 µM (inactive) | > 30 µM (inactive) | > 30 µM (inactive) | > 30 µM (inactive) | > 30 µM (inactive) | > 30 µM (inactive) |  |  |  | O=C(Nc1ccc(OC(F)(F)F)cc1)c1sccc1NCc1ccnc2ccccc12 [OSI-930]
> 30 µM (inactive) | > 30 µM (inactive) | > 30 µM (inactive) |  |  | > 30 µM (inactive) | > 30 µM (inactive) |  | > 30 µM (inactive) |  | > 30 µM (inactive) | > 30 µM (inactive) |  | Cn1c(=O)c(F)c(Nc2ccc(I)cc2F)c2c(=O)n(C[C@@H](O)CO)cnc21 [TAK-733]
0.057 µM (active) | > 30 µM (inactive) | > 30 µM (inactive) | > 30 µM (inactive) |  | > 30 µM (inactive) | > 30 µM (inactive) |  | > 30 µM (inactive) | > 30 µM (inactive) | > 30 µM (inactive) |  | > 30 µM (inactive) | COc1cccc2cc(-c3nc([C@H]4CC[C@H](C(=O)O)CC4)n4ncnc(N)c34)[nH]c12 [OSI-027]
> 30 µM (inactive) | > 30 µM (inactive) | > 30 µM (inactive) | > 30 µM (inactive) |  | > 30 µM (inactive) | > 30 µM (inactive) |  |  |  | > 30 µM (inactive) | > 30 µM (inactive) |  | c1cc(OCCN2CCCCC2)cc(-c2n[nH]c3ccc(-c4nc[nH]n4)cc23)c1 [CC-401]

Source: ChEMBL document CHEMBL3991601, “The target landscape of clinical kinase drugs” (Science, 2017)
